Data published in US6087401A, “Cyclopentenones, process for preparing the same, and the use thereof” (Takara Shuzo Co., Ltd., priority 1996, dated 2000).
≈ marks a conversion by molar mass, not a printed value.

Experiments:
[1] = test system: HL-60 cells; test: viable HL-60 cell number after incubation; type: cell-based, human; settings: sixth day
[2] = test system: HL-60 cells; test: cancer cell differentiation (Wright-Giemsa stain); type: cell-based, human; settings: control around 10%
Description: (2) To HL-60 cells was added 10^-4 μg/ml of the cyclopentenone and an incubation by the same manner as in Example 15-(1) was conducted for three days. […] The result was that the differentiated cells were around 10% in the control where no cyclopentenone was added while, in the fractions to which the cyclopentenone was added, 50% or more cells were differentiated to monocyte- or to macrophage-like cells.
The result was that the differentiated cells were around 10% in the control where no cyclopentenone was added while, in the fraction to which 0.005 μg/ml of the cyclopentenone was added, 25% or more cells were differentiated to mature bone marrow cells.

[3] = test system: cancer cells such as HL-60, MOLT-3, A-549, WI-38VA13, Hep G2, HCT 116, SW 480, WiDr, AGS and myeloma cells; test: cell growth suppressing, anticancer and apoptosis-inducing action to cancer cells; type: cell-based, human
[4] = test system: Lactobacillus fructivorans (IFO 13118); test: antibacterial activity to hiochi bacteria, microorganism A; type: cell-based; settings: five days; for Growth Turbidity (OD600): control 0.96
Description: (§1) The testing microorganism was subjected to a stationary incubation for five days in an SI medium (Japan Brewery Association) containing 10% of ethanol to give a seed microorganism. The seed microorganism (0.1%) was added to 100 ml of 10% ethanol-containing SI medium to which the cyclopentenone was added in an amount of 0, 25, 50, 75 or 100 μg/ml (in terms of final concentration), then a stationary incubation was conducted for five days and the turbidity was measured. In measuring the turbidity, the value of OD600 was measured using an absorbance meter. A value of OD600 of the medium to which no testing microorganism was inoculated was deducted from the above value and this (growth turbidity) was used for the growth of the tested microorganism.
(§2) The tested microorganisms were as follows. Thus, Lactobacillus fructivorans (IFO 13118) (testing microorganism A), Lactobacillus fructivorans (JCM 1198) (testing microorganism B) and Lactobacillus homohiochii (IFO 13120) (testing microorganism C) as true hiochi bacteria while Lactobacillus rhamnosus (IFO 3532) (testing microorganism D) was used as hiochi lactobacteria.

[5] = test system: Lactobacillus homohiochii (IFO 13120); test: antibacterial activity to hiochi bacteria, microorganism C; type: cell-based; settings: five days; for Growth Turbidity (OD600): control 1.61
Description: as §1, §2

[6] = test system: Lactobacillus rhamnosus (IFO 3532); test: antibacterial activity to hiochi lactobacteria, microorganism D; type: cell-based; settings: five days; for Growth Turbidity (OD600): control 0.35
Description: as §1, §2

[7] = test system: Vibrio parahaemolyticus 4387-61 and Vibrio parahaemolyticus T4144-1; test: antibacterial and bactericidal action to Vibrio; type: cell-based
Description: (1) Vibrio parahaemolyticus 4387-61 or Vibrio parahaemolyticus T4144-1 (both stored at National Institute of Hygienic Sciences) was inoculated to make 10^6 cells/ml to a trypto-soya bouillon medium (manufactured by Nissui) containing […], 3.13 or 1.56 μg/ml of the cyclopentenone and a stationary incubation was conducted at 37° C. for 24 hours.
The culture (50 μl) where no growth of the microorganism was noted was spread on 20 ml of a trypto-soya bouillon agar medium containing no cyclopentenone and incubation was conducted at 37° C. for 24 hours. The result was that, in any of the strains, no growth of microorganism was noted on the agar medium on which a fraction (to which 50 μg/ml or more cyclopentenone was added) was spread.

[8] = test system: Sarcoma-180; test: life-prolonging effect, subcutaneous Sarcoma-180; type: in vivo, female mice of ICR strain; settings: about 80 mg/kg/day in drinking water, 40th day; control two out of eight
Description: (2) Sixteen female mice of ICR strain of six weeks age (body weight: about 26 g) were used. Sarcoma-180 (5.5×10^6 cells/mouse) was subcutaneously injected into abdomen whereupon a control group (8 mice) and a group administered with the cyclopentenone (8 mice) were made.
The cyclopentenone was diluted with tap water and freely given to the cyclopentenone-administered group to make the dose of the cyclopentenone about 80 mg/kg/day using a water-supplying bottle. Tap water was similarly given to the control group. In both groups, feed was freely given during the course of the experiment.

[9] = test system: Sarcoma-180; test: life-prolonging effect, intraperitoneal Sarcoma-180; type: in vivo, female mice of ICR strain; settings: intraperitoneal tumor
[10] = test system: IMC; test: life-prolonging effect, IMC; type: in vivo, female mice of CDF1 strain; settings: intraperitoneal tumor
[11] = stability of the cyclopentenone in solution (TLC)

O=C1C=CC(O)C1O (centres unmarked) [the cyclopentenone, 4,5-dihydroxy-2-cyclopenten-1-one]
viable cells ([1]; 10 μg/ml): no viable cell was found | inhibition at 0.01 µg/mL ([1]; Homo sapiens, HL-60, 0.01 μg/ml, vs control, read-out: cell growth inhibition): ~40% | inhibition at 0.1 µg/mL ([1]; Homo sapiens, HL-60, 0.1 μg/ml, vs control, read-out: cell growth inhibition): ~55% | inhibition at 1 µg/mL ([1]; Homo sapiens, HL-60, 1 μg/ml, vs control, read-out: cell growth inhibition): ~90% | cells differentiated to mature bone marrow cells ([2]; 0.005 μg/ml, three or six days): ≥ 25% | cells differentiated to monocyte- or to macrophage-like cells ([2]; 10^-4 μg/ml, three days): ≥ 50% | apoptosis-inducing action to cancer cells [3]: apoptosis-inducing action | cell growth suppressing action and anticancer action [3]: cell growth suppressing action and anticancer action | Growth Turbidity (OD600) ([4]; 25 μg/ml): 0.17 | Growth Turbidity (OD600) ([4]; 50 μg/ml): 0.02 | Growth Turbidity (OD600) ([4]; 75 μg/ml): 0 | MIC ([4]; Fructilactobacillus fructivorans, IFO13118, 120 h, read-out: concentration completely inhibiting growth): 75 µg/mL (≈ 657 µM) | Growth Turbidity (OD600) ([5]; 25 μg/ml): 0.32 | Growth Turbidity (OD600) ([5]; 50 μg/ml): 0.08 | Growth Turbidity (OD600) ([5]; 75 μg/ml): 0 | MIC ([5]; IFO13120, 120 h, read-out: concentration completely inhibiting growth): 75 µg/mL (≈ 657 µM) | Growth Turbidity (OD600) ([6]; 25 μg/ml): 0.04 | Growth Turbidity (OD600) ([6]; 50 μg/ml): 0.01 | Growth Turbidity (OD600) ([6]; 75 μg/ml): 0 | MIC ([6]; Lacticaseibacillus rhamnosus, IFO3532, 120 h, read-out: concentration completely inhibiting growth): 75 µg/mL (≈ 657 µM) | MIC ([7]; 37° C., 24 hours, both strains, read-out: concentration showing antibacterial action (no growth)): 12.5 µg/mL (≈ 110 µM) | MBC ([7]; 24 h, read-out: concentration showing bactericidal action): 50 µg/mL (≈ 438 µM) | numbers of living mice (out of eight) [8]: seven | increase in life span [9]: 148% | mean survival days ([9]; control 22.6 days): 33.4 days | increase in life span [10]: 188% | mean survival days ([10]; control 10.8 days): 20.3 days | stability ([11]; 25 mM in 10 mM tris (pH 10), room temperature, immediately after dissolution): rapid decomposition | stability ([11]; in water, 121° C., 30 minutes): most of the cyclopentenone was left nondecomposed
